According to US20240165180A1, “Processes for Extracting Muscimol from Amanita Muscaria” (priority 2021, published 2024):

Assay: Heat exposure of muscimol during distillation
Assay type: physicochemical
Details: after being exposed to heat for 3 hours (distillation)
Protocol: In one example, distillation is performed for about 0.5 hours to about 6 hours. In some embodiments, distillation is performed for about 5 to about 6 hours. In another example, it is performed for about 2 to about 3 hours. In another example, it is performed for about 3 hours. […] However, in some embodiments, further distillation beyond 3 hours, such as 4 hours, 5 hours, 6 hours, or more than 6 hours, may be advantageous. In some embodiments, the resulting muscimol extract is a liquid.
The refluxed extract was then distilled for a period of 3 hours. Samples were taken prior to distillation, after 1 hour, 2 hours, and at 3 hours of distillation, as discussed further below. After distillation, the filtrate was cooled to 3° C. in a refrigerator. After about 3 hours of cooling, there was coagulated material suspended in the filtrate. The coagulated material in the filtrate was removed via vacuum filtration through the vacuum filtration setup described above (without the cheesecloth). After filtration, the filter setup was rinsed under vacuum with 30 mL of distilled water into the filtrate.

Compound: NCc1cc(=O)[nH]o1 [muscimol, 5-(Aminomethyl)-1,2-oxazol-3(2H)-one]
- stability to heat: begins degrading (to a very minimal degree)
